According to US4255183A, “Substituted phenyl urea and herbicides for use in paddy field” (Hokko Chemical Industry Co., Ltd., priority 1977, dated 1981):
Like-named read-outs stand apart in the source and are kept apart here.

How the values were obtained:
[1] = test system: Echinochloa crus-galli var. oryzicola; experiment: Test Example 2: concrete pot test on killing effect, Echinochloa crus-galli var. oryzicola; assay type: in vivo; settings: Echinochloa crus-galli, 720 h; for inhibition at 9000 g/ha: 900 g/10 are
Protocol: (§1) In a Wagner pot of 1/500 are, paddy field soil (alluvial soil) was placed and 50 seeds of Echinochloa crus-galli var. oryzicola and 30 seeds of paddy rice were seeded in the surface layer of said soil and the submerging depth was kept at about 1 cm. When Echinochloa crus-galli var. oryzicola reached at the one leaf stage and 5-leaf stage, the emulsion of a predetermined concentration, prepared according to Example 4 was added dropwise. After 30 days from the treatment with the chemical, dry weights of Echinochloa crus-galli var. oryzicola and paddy rice were measured and the inhibition rate was calculated with reference to untreated area. [formula]
(§2) In a concrete pot of 1/400 are (50 cm×50 cm), paddy field soil (alluvial soil) was placed and 200 seeds of Echinochloa crus-galli var. oryzicola were seeded in 10 surface layer of said soil and the soil was submerged at about 3 cm depth. Before emergence of Echinochloa crus-galli var. oryzicola, paddy rice at 2.5-leaf stage (Asahi species) was transplanted at the rate of 8 stubs per pot, planting 3 seedlings per stub. At the one-leaf stage (3.5 leaves stage of paddy rice) and 5 leaves stage (7 leaves stage of paddy rice) of Echinochloa crus-galli var. oryzicola, the granule prepared according to Example 1 was applied. […] 30 Days after the treatment with the chemical, examination was made in the similar manner as Test Example 1 to obtain results as shown in Table 2.
(§3) In the table, as the comparative chemicals CPN, Benthiocarb, Molinate and Simetryne, those commercially available were used and the comparative chemicals A and B (as mentioned before) used were prepared according to the process for preparing the compound of this invention.

paddy rice [2] = experiment: whole plant or invertebrate; assay type: in vivo, paddy rice (Asahi species); settings: Oryza sativa, 720 h; for inhibition at 9000 g/ha: 900 g/10 are
Protocol: as §1, §2, §3

[3] = test system: Echinochloa crus-galli var. oryzicola; experiment: Test Example 1: pot test on selectivity, inhibition of Echinochloa crus-galli var. oryzicola; assay type: in vivo; settings: dry weight 30 days after treatment; for inhibition at 750 g/ha / inhibition at 1500 g/ha / inhibition at 3000 g/ha / inhibition at 6000 g/ha / inhibition at 9000 g/ha: Echinochloa crus-galli, 720 h
Protocol: as §1
(§4) The comparative chemicals used, i.e. DCMU and Linuron, were those commercially available, and the comparative chemicals A and B used were prepared according to the process for formulating the compound of this invention.

paddy rice [4] = experiment: Test Example 1: pot test on selectivity, inhibition of paddy rice; assay type: in vivo; settings: dry weight 30 days after treatment
Protocol: as §1, with “When Echinochloa crus-galli var. oryzicola reached at the one leaf stage and 5-leaf stage, the emulsion of a predetermined concentration, prepared according to Example 4 was added dropwise.” left out
as §4

[5] = read-out: Inhibition (%) by treatment at 1-leaf stage of E. crus-galli var. oryzicola, E. crus-galli var. oryzicola
[6] = read-out: Inhibition (%) by treatment at 5-leaf stage of E. crus-galli var. oryzicola, E. crus-galli var. oryzicola
[7] = read-out: Inhibition (%) by treatment at 1-leaf stage of E. crus-galli var. oryzicola, paddy rice
[8] = read-out: Inhibition (%) by treatment at 5-leaf stage of E. crus-galli var. oryzicola, paddy rice

## O=[N+]([O-])c1ccc(Oc2c(Cl)cc(Cl)cc2Cl)cc1 [CNP, 2,4,6-trichlorophenyl-4'-nitrophenylether]
[1]; 100 g/10 are, granule, 30 days after treatment, read-out: Inhibition (%) by treatment at 1-leaf stage of E. crus-galli var. oryzicola, E. crus-galli var. oryzicola
  inhibition at 1000 g/ha: 65%
[1]; 100 g/10 are, granule, 30 days after treatment, read-out: Inhibition (%) by treatment at 5-leaf stage of E. crus-galli var. oryzicola, E. crus-galli var. oryzicola
  inhibition at 1000 g/ha: 0%
[1]; 300 g/10 are, granule, 30 days after treatment, read-out: Inhibition (%) by treatment at 1-leaf stage of E. crus-galli var. oryzicola, E. crus-galli var. oryzicola
  inhibition at 3000 g/ha: 100%
[1]; 300 g/10 are, granule, 30 days after treatment, read-out: Inhibition (%) by treatment at 5-leaf stage of E. crus-galli var. oryzicola, E. crus-galli var. oryzicola
  inhibition at 3000 g/ha: 0%
[1]; granule, 30 days after treatment, read-out: Inhibition (%) by treatment at 1-leaf stage of E. crus-galli var. oryzicola, E. crus-galli var. oryzicola
  inhibition at 9000 g/ha: 100%
[1]; granule, 30 days after treatment, read-out: Inhibition (%) by treatment at 5-leaf stage of E. crus-galli var. oryzicola, E. crus-galli var. oryzicola
  inhibition at 9000 g/ha: 0%
Paddy rice [2]; 100 g/10 are, granule, rice at 3.5 leaves stage, 30 days, read-out: Inhibition (%) by treatment at 1-leaf stage of E. crus-galli var. oryzicola, paddy rice
  inhibition at 1000 g/ha: 0%
Paddy rice [2]; 100 g/10 are, granule, rice at 7 leaves stage, 30 days, read-out: Inhibition (%) by treatment at 5-leaf stage of E. crus-galli var. oryzicola, paddy rice
  inhibition at 1000 g/ha: 0%
Paddy rice [2]; 300 g/10 are, granule, rice at 3.5 leaves stage, 30 days, read-out: Inhibition (%) by treatment at 1-leaf stage of E. crus-galli var. oryzicola, paddy rice
  inhibition at 3000 g/ha: 8%
Paddy rice [2]; 300 g/10 are, granule, rice at 7 leaves stage, 30 days, read-out: Inhibition (%) by treatment at 5-leaf stage of E. crus-galli var. oryzicola, paddy rice
  inhibition at 3000 g/ha: 0%
Paddy rice [2]; granule, rice at 3.5 leaves stage, 30 days, read-out: Inhibition (%) by treatment at 1-leaf stage of E. crus-galli var. oryzicola, paddy rice
  inhibition at 9000 g/ha: 52%
Paddy rice [2]; granule, rice at 7 leaves stage, 30 days, read-out: Inhibition (%) by treatment at 5-leaf stage of E. crus-galli var. oryzicola, paddy rice
  inhibition at 9000 g/ha: 0%

## CC=CCOc1ccc(NC(=O)N(C)C)cc1 [Mixture of trans- and cis-forms 1:4]
[3]; 75 g/10 are, 1-leaf stage
  Inhibition (%) by treatment at 1-leaf stage, E. crus-galli var. oryzicola: 93%
[3]; 75 g/10 are, 5-leaf stage
  Inhibition (%) by treatment at 5-leaf stage, E. crus-galli var. oryzicola: 84%
[3]; 150 g/10 are, 1-leaf stage
  Inhibition (%) by treatment at 1-leaf stage, E. crus-galli var. oryzicola: 100%
[3]; 150 g/10 are, 5-leaf stage
  Inhibition (%) by treatment at 5-leaf stage, E. crus-galli var. oryzicola: 100%
[3]; 300 g/10 are, 1-leaf stage
  Inhibition (%) by treatment at 1-leaf stage, E. crus-galli var. oryzicola: 100%
[3]; 300 g/10 are, 5-leaf stage
  Inhibition (%) by treatment at 5-leaf stage, E. crus-galli var. oryzicola: 100%
[3]; 600 g/10 are, 1-leaf stage
  Inhibition (%) by treatment at 1-leaf stage, E. crus-galli var. oryzicola: 100%
[3]; 600 g/10 are, 5-leaf stage
  Inhibition (%) by treatment at 5-leaf stage, E. crus-galli var. oryzicola: 100%
[3]; 900 g/10 are, 1-leaf stage
  Inhibition (%) by treatment at 1-leaf stage, E. crus-galli var. oryzicola: 100%
[3]; 900 g/10 are, 5-leaf stage
  Inhibition (%) by treatment at 5-leaf stage, E. crus-galli var. oryzicola: 100%
Paddy rice [4]; 75 g/10 are, 1-leaf stage
  Inhibition (%) by treatment at 1-leaf stage, paddy rice: 0%
Paddy rice [4]; 75 g/10 are, 5-leaf stage
  Inhibition (%) by treatment at 5-leaf stage, paddy rice: 0%
Paddy rice [4]; 150 g/10 are, 1-leaf stage
  Inhibition (%) by treatment at 1-leaf stage, paddy rice: 0%
Paddy rice [4]; 150 g/10 are, 5-leaf stage
  Inhibition (%) by treatment at 5-leaf stage, paddy rice: 0%
Paddy rice [4]; 300 g/10 are, 1-leaf stage
  Inhibition (%) by treatment at 1-leaf stage, paddy rice: 0%
Paddy rice [4]; 300 g/10 are, 5-leaf stage
  Inhibition (%) by treatment at 5-leaf stage, paddy rice: 0%
Paddy rice [4]; 600 g/10 are, 1-leaf stage
  Inhibition (%) by treatment at 1-leaf stage, paddy rice: 0%
Paddy rice [4]; 600 g/10 are, 5-leaf stage
  Inhibition (%) by treatment at 5-leaf stage, paddy rice: 0%
Paddy rice [4]; 900 g/10 are, 1-leaf stage
  Inhibition (%) by treatment at 1-leaf stage, paddy rice: 4%
Paddy rice [4]; 900 g/10 are, 5-leaf stage
  Inhibition (%) by treatment at 5-leaf stage, paddy rice: 0%

## CC=CCOc1ccc(NC(=O)N(C)C)cc1 [Mixture of trans- and cis-forms 4:1]
[3]; 75 g/10 are, 1-leaf stage, read-out: Inhibition (%) by treatment at 1-leaf stage, E. crus-galli var. oryzicola
  inhibition at 750 g/ha: 94%
[3]; 75 g/10 are, 5-leaf stage, read-out: Inhibition (%) by treatment at 5-leaf stage, E. crus-galli var. oryzicola
  inhibition at 750 g/ha: 80%
[3]; 150 g/10 are, 1-leaf stage, read-out: Inhibition (%) by treatment at 1-leaf stage, E. crus-galli var. oryzicola
  inhibition at 1500 g/ha: 100%
[3]; 150 g/10 are, 5-leaf stage, read-out: Inhibition (%) by treatment at 5-leaf stage, E. crus-galli var. oryzicola
  inhibition at 1500 g/ha: 100%
[3]; 300 g/10 are, 1-leaf stage, read-out: Inhibition (%) by treatment at 1-leaf stage, E. crus-galli var. oryzicola
  inhibition at 3000 g/ha: 100%
[3]; 300 g/10 are, 5-leaf stage, read-out: Inhibition (%) by treatment at 5-leaf stage, E. crus-galli var. oryzicola
  inhibition at 3000 g/ha: 100%
[3]; 600 g/10 are, 1-leaf stage, read-out: Inhibition (%) by treatment at 1-leaf stage, E. crus-galli var. oryzicola
  inhibition at 6000 g/ha: 100%
[3]; 600 g/10 are, 5-leaf stage, read-out: Inhibition (%) by treatment at 5-leaf stage, E. crus-galli var. oryzicola
  inhibition at 6000 g/ha: 100%
[3]; 900 g/10 are, 1-leaf stage, read-out: Inhibition (%) by treatment at 1-leaf stage, E. crus-galli var. oryzicola
  inhibition at 9000 g/ha: 100%
[3]; 900 g/10 are, 5-leaf stage, read-out: Inhibition (%) by treatment at 5-leaf stage, E. crus-galli var. oryzicola
  inhibition at 9000 g/ha: 100%
Paddy rice [4]; 900 g/10 are, 1-leaf stage
  Inhibition (%) by treatment at 1-leaf stage, paddy rice: 1%
Paddy rice [4]; Oryza sativa, 720 h, 75 g/10 are, 1-leaf stage, read-out: Inhibition (%) by treatment at 1-leaf stage, paddy rice
  inhibition at 750 g/ha: 0%
Paddy rice [4]; Oryza sativa, 720 h, 75 g/10 are, 5-leaf stage, read-out: Inhibition (%) by treatment at 5-leaf stage, paddy rice
  inhibition at 750 g/ha: 0%
Paddy rice [4]; Oryza sativa, 720 h, 150 g/10 are, 1-leaf stage, read-out: Inhibition (%) by treatment at 1-leaf stage, paddy rice
  inhibition at 1500 g/ha: 0%
Paddy rice [4]; Oryza sativa, 720 h, 150 g/10 are, 5-leaf stage, read-out: Inhibition (%) by treatment at 5-leaf stage, paddy rice
  inhibition at 1500 g/ha: 0%
Paddy rice [4]; Oryza sativa, 720 h, 300 g/10 are, 1-leaf stage, read-out: Inhibition (%) by treatment at 1-leaf stage, paddy rice
  inhibition at 3000 g/ha: 0%
Paddy rice [4]; Oryza sativa, 720 h, 300 g/10 are, 5-leaf stage, read-out: Inhibition (%) by treatment at 5-leaf stage, paddy rice
  inhibition at 3000 g/ha: 0%
Paddy rice [4]; Oryza sativa, 720 h, 600 g/10 are, 1-leaf stage, read-out: Inhibition (%) by treatment at 1-leaf stage, paddy rice
  inhibition at 6000 g/ha: 0%
Paddy rice [4]; Oryza sativa, 720 h, 600 g/10 are, 5-leaf stage, read-out: Inhibition (%) by treatment at 5-leaf stage, paddy rice
  inhibition at 6000 g/ha: 0%
Paddy rice [4]; Oryza sativa, 720 h, 900 g/10 are, 5-leaf stage, read-out: Inhibition (%) by treatment at 5-leaf stage, paddy rice
  inhibition at 9000 g/ha: 0%

## CCNc1nc(NCC)nc(SC)n1 [Simetryne, 2,4-bis(ethylamino)-6-methylthio-1,3,5-triazine]
[1]; [5]
  inhibition at 300 g/ha: 20%
  inhibition at 1000 g/ha: 100%
  inhibition at 3000 g/ha: 100%
[1]; [6]
  inhibition at 300 g/ha: 0%
  inhibition at 1000 g/ha: 7%
  inhibition at 3000 g/ha: 36%
Paddy rice [2]; [7]
  inhibition at 300 g/ha: 0%
  inhibition at 1000 g/ha: 74%
  inhibition at 3000 g/ha: 100%
Paddy rice [2]; [8]
  inhibition at 300 g/ha: 0%
  inhibition at 1000 g/ha: 17%
  inhibition at 3000 g/ha: 46%
